The target of one assay is JAK2 (Homo sapiens (Human), UniProt O60674). The experiment in a line: Jak Biochemical HTRF Assay, JAK2. Particulars: HTRF biochemical assay, GST-tagged catalytic domain; top concentration tested […]. An excerpt:
(§1) Jak Biochemical HTRF Assay Protocol
(§2) Subsequent reagent additions employed an Agilent Bravo.
In general terms: Time-resolved FRET reads energy transfer from a long-lived donor to a nearby acceptor.

For a further assay, the target named is JAK1 (Homo sapiens (Human), UniProt P23458). The experiment in a line: Jak Biochemical HTRF Assay, JAK1. As to conditions: HTRF biochemical assay, GST-tagged catalytic domain; top concentration tested […]; read-out: JAK1 IC50.
Excerpt: as §1, §2

Sequence of JAK1 (P23458 875-1153): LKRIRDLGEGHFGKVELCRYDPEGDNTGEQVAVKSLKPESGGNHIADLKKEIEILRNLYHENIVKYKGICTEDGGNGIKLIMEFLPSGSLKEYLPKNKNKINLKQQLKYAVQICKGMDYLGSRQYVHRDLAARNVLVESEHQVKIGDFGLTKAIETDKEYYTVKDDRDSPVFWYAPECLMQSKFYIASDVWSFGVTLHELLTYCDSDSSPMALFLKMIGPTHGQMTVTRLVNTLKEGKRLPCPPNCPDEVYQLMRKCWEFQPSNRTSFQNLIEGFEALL
Sequence of JAK2 (O60674 849-1124): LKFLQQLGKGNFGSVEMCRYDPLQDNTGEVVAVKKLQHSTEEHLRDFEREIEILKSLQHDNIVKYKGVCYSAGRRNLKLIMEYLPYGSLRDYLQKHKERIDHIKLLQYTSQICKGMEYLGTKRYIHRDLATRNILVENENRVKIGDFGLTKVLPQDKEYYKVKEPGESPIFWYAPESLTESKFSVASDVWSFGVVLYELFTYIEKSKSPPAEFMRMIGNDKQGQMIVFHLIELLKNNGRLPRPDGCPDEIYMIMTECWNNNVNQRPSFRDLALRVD

On to `Cc1cc(N2CCC(CC#N)(n3cc(C(N)=O)c(Nc4ccc(F)cc4)n3)CC2)ccn1` [Example 3-4, 1-[4-(cyanomethyl)-1-(2-methylpyridin-4-yl)piperidin-4-yl]-3-[(4-fluorophenyl)amino]-1H-pyrazole-4-carboxamide], for which the IC50 at JAK2 stood at 174 nM; on JAK1, 8 nM.
The corresponding values for `N#CCC1(n2cc(C(N)=O)c(Nc3ccc(F)cc3)n2)CCN(c2cccc(F)n2)CC1` [Example 3-54, 1-[4-(cyanomethyl)-1-(6-fluoropyridin-2-yl)piperidin-4-yl]-3-[(4-fluorophenyl)amino]-1H-pyrazole-4-carboxamide] are 4 nM and 0.3 nM.
The corresponding values for `CC(C)(C)OC(=O)N1CCC(CC#N)(n2cc(C(N)=O)c(Nc3ccccc3)n2)C1` (stereo not shown) [Example 2-17, tert-butyl 3-[4-carbamoyl-3-(phenylamino)-1H-pyrazol-1-yl]-3-(cyanomethyl)pyrrolidine-1-carboxylate] are 27 nM and 2 nM.
Turning to `COc1ccc(CC(=O)N2CCC(CC#N)(n3cc(C(N)=O)c(Nc4ccccc4)n3)CC2)cc1` [Example 34-24, 1-{4-(cyanomethyl)-1-[(4-methoxyphenyl)acetyl]piperidin-4-yl}-3-(phenylamino)-1H-pyrazole-4-carboxamide], the IC50 on JAK2 was found to be 84 nM; at JAK1, 7 nM.
On to `COc1ccc(N2CCC(CC#N)(n3cc(C(N)=O)c(Nc4ccc(F)cc4)n3)CC2)cn1` [Example 3-53, 1-[4-(cyanomethyl)-1-(6-methoxypyridin-3-yl)piperidin-4-yl]-3-[(4-fluorophenyl)amino]-1H-pyrazole-4-carboxamide], for which the IC50 came to 9 nM at JAK2 and 0.4 nM on JAK1.
Turning to `N#CCC1(n2cc(C(N)=O)c(Nc3ccc(F)cc3)n2)CCC(Nc2cccc(F)c2)CC1` (stereo not drawn) [Example 40-16, Cis or trans 1-{1-(cyanomethyl)-4-[(3-fluorophenyl)amino]cyclohexyl}-3-[(4-fluorophenyl)amino]-1H-pyrazole-4-carboxamide], the IC50 stood at 18 nM on JAK2 and 0.3 nM at JAK1.
The corresponding values for `Cc1cc(N2CCC(CC#N)(n3cc(C(N)=O)c(Nc4ccc(F)cc4)n3)CC2)cnc1C` [Example 3-14, 1-[4-(cyanomethyl)-1-(5,6-dimethylpyridin-3-yl)piperidin-4-yl]-3-[(4-fluorophenyl)amino]-1H-pyrazole-4-carboxamide] are 49 nM and 2 nM.
On to `Cc1cc(N2CCC(CC#N)(n3cc(C(N)=O)c(Nc4ccc(F)cc4)n3)CC2)cnc1F` [Example 3-56, 1-[4-(cyanomethyl)-1-(6-fluoro-5-methylpyridin-3-yl)piperidin-4-yl]-3-[(4-fluorophenyl)amino]-1H-pyrazole-4-carboxamide], for which the IC50 stood at 23 nM against JAK2 and 1 nM at JAK1.
`N#CCC1(n2cc(C(N)=O)c(Nc3ccc(S(=O)(=O)C(F)F)cc3)n2)CCC(NCC(F)F)CC1` (stereo not drawn) [Example 40-84, Cis or trans 1-{1-(cyanomethyl)-4-[(2,2-difluoroethyl)amino]cyclohexyl}-3-({4-[(difluoromethyl)sulfonyl]phenyl}amino)-1H-pyrazole-4-carboxamide]: the IC50 on JAK2 came out at 3 nM; at JAK1, 0.04 nM.
As for `N#CCC1(n2cc(C(N)=O)c(Nc3ccccc3)n2)CCN(C(=O)OCc2cccnc2)CC1` [Example 30-39, pyridin-3-ylmethyl 4-[4-carbamoyl-3-(phenylamino)-1H-pyrazol-1-yl]-4-(cyanomethyl)piperidine-1-carboxylate], the IC50 against JAK2 came out at 38 nM; on JAK1, 2 nM.
On to `N#CCC1(n2cc(C(N)=O)c(Nc3ccccc3)n2)CCN(C(=O)c2cccnc2)CC1` [Example 34-8, 1-[4-(cyanomethyl)-1-(pyridin-3-ylcarbonyl)piperidin-4-yl]-3-(phenylamino)-1H-pyrazole-4-carboxamide], for which the IC50 amounted to 191 nM against JAK2 and 14 nM on JAK1.
Regarding `N#CCC1(n2cc(C(N)=O)c(Nc3ccccc3)n2)CCN(C(=O)OC2CCCC2)CC1` [Example 30-30, cyclopentyl 4-[4-carbamoyl-3-(phenylamino)-1H-pyrazol-1-yl]-4-(cyanomethyl)piperidine-1-carboxylate], the results for the half-inhibitory concentration (IC50) at JAK2 and at JAK1 were 50 nM and 1 nM, respectively.
The corresponding values for `N#CCC1(n2cc(C(N)=O)c(Nc3ccc(F)cc3)n2)CCC(Nc2ccccc2)CC1` (stereo not drawn) [Example 40-103, Cis or trans 1-[1-(cyanomethyl)-4-(phenylamino)cyclohexyl]-3-[(4-fluorophenyl)amino]-1H-pyrazole-4-carboxamide] are 3 nM and 0.1 nM.
With `N#CCC1(n2cc(C(N)=O)c(Nc3ccnc(F)c3)n2)CCN(C(=O)OCC(F)F)CC1` [Example 30-27, 2,2-difluoroethyl 4-(4-carbamoyl-3-(2-fluoropyridin-4-ylamino)-1H-pyrazol-1-yl)-4-(cyanomethyl)piperidine-1-carboxylate], the figures for the IC50 against JAK2 and on JAK1 were 5 nM and 0.07 nM, respectively.
The corresponding values for `C[C@H](OC(=O)N1CCC(CC#N)(n2cc(C(N)=O)c(Nc3ccnc(F)c3)n2)CC1)C1CC1` [Example 30-77, (1S)-1-cyclopropylethyl 4-{4-carbamoyl-3-[(2-fluoropyridin-4-yl)amino]-1H-pyrazol-1-yl}-4-(cyanomethyl)piperidine-1-carboxylate] are 9 nM and 0.2 nM.
On the same counts, the results for `N#CCC1(n2cc(C(N)=O)c(Nc3ccccc3)n2)CCN(C(=O)OC2CCOCC2)CC1` [Example 30-37, tetrahydro-2H-pyran-4-yl 4-[4-carbamoyl-3-(phenylamino)-1H-pyrazol-1-yl]-4-(cyanomethyl)piperidine-1-carboxylate] are 103 nM and 3 nM.
The corresponding values for `COC1CC(CN2CCC(CC#N)(n3cc(C(N)=O)c(Nc4ccnc(F)c4)n3)CC2)C1` (stereo not shown) [Example 22-37, 1-{4-(cyanomethyl)-1-[(3-methoxycyclobutyl)methyl]piperidin-4-yl}-3-[(2-fluoropyridin-4-yl)amino]-1H-pyrazole-4-carboxamide] are > 1500 nM and 88 nM.
With `CC(C)(C)OC(=O)N1CC2(C1)CC(CC#N)(n1cc(C(N)=O)c(Nc3ccccc3)n1)C2` [Example 2-23, tert-butyl 6-[4-carbamoyl-3-(phenylamino)-1H-pyrazol-1-yl]-6-(cyanomethyl)-2-azaspiro[3.3]heptane-2-carboxylate], the half-inhibitory concentration (IC50) against JAK2 was found to be 1480 nM; on JAK1 it was 198 nM.
Consider `N#CCC1(n2cc(C(N)=O)c(Nc3ccccc3)n2)CCN(Cc2ccc(C#N)cc2)CC1` [Example 21-4, 1-[1-(4-cyanobenzyl)-4-(cyanomethyl)piperidin-4-yl]-3-(phenylamino)-1H-pyrazole-4-carboxamide], for which the IC50 against JAK2 is 243 nM; on JAK1 it was 29 nM.
On the same counts, the results for `CC(C)c1ccccc1NC(=O)N1CC(CC#N)(n2cc(C(N)=O)c(Nc3ccccc3)n2)C1` [Example 38-8, 1-[3-(cyanomethyl)-1-{[2-(1-methylethyl)phenyl]carbamoyl}azetidin-3-yl]-3-(phenylamino)-1H-pyrazole-4-carboxamide] are 428 nM and 14 nM.

For orientation: IC50 means the point on the concentration scale where inhibition reaches its midpoint.
